Laboratory results reported in patent US20230091225A1, “Bifunctional chimeric heterocyclic compounds for targeted degradation of androgen receptors and use thereof” (HINOVA PHARMACEUTICALS INC., priority 2019, published 2023).

The molecules below were run against T1, androgen receptor (AR) (Homo sapiens, UniProt P10275) (assay: Degradation of androgen receptor (AR) protein in VCaP cells by ELISA). Conditions: not given.
T1 sequence (P10275 1-920): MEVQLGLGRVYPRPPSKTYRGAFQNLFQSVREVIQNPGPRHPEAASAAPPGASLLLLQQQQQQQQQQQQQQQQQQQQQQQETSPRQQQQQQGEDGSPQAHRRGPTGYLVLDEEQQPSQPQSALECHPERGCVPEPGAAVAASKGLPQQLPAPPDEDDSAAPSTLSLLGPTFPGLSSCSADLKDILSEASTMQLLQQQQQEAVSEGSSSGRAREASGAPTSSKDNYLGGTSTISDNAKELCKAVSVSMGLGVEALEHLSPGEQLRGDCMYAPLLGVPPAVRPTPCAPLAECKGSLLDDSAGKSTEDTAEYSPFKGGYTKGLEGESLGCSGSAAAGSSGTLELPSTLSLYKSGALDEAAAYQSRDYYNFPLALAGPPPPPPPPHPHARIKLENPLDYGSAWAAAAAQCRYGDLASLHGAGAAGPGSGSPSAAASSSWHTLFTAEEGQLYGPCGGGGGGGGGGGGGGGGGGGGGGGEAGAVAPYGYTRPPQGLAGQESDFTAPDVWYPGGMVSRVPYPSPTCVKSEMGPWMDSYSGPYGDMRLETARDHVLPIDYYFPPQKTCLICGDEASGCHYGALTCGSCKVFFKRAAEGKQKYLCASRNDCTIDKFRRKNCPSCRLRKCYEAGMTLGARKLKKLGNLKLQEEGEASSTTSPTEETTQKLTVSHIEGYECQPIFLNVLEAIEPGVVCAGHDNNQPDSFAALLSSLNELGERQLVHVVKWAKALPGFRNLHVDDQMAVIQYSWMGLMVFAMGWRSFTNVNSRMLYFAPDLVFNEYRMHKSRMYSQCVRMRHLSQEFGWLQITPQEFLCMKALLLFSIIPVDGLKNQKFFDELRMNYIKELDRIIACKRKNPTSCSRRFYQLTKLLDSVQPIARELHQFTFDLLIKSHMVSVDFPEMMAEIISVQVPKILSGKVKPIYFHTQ
Assay type: cell-based

Molecule	Dmax (%)
N-((1r,4r)-4-(3-chloro-4-cyanophenoxy)cyclohexyl)-6-(2-((1-(2,6-dioxopiperidin-3-yl)-6-fluoro-1,3-dioxoisoindolin-5-yl)piperidine-4-yl)methyl)-2,7-diazaspiro[(3.5]nonan-7-yl)-N-(methyl-d3)pyridazine-3-formamide [Compound 91]	+ (key: ++++: >80%; +++: 80%-60%; ++: 60%-40%; +: <40%)
N-((1r,4r)-4-(3-chloro-4-cyanophenoxy)cyclohexyl)-6-(4-((6-(2-(2,6-dioxopiperidin-3-yl)-6-fluoro-1,3-dioxoisoindolin-5-yl)-2,6-diazaspiro[3.3]heptan-2-yl)methyl)piperidin-1-yl)pyrazine-2-amide [Compound 123]	++++ (key: A: >80%; B: 79%-50%; C: 49%-25%; D: <25%)

Same assay, conditions: read-out: DC50

Molecule	DC50
N-((1r,4r)-4-(3-chloro-4-cyanophenoxy)cyclohexyl)-6-(2-((1-(2,6-dioxopiperidin-3-yl)-6-fluoro-1,3-dioxoisoindolin-5-yl)piperidine-4-yl)methyl)-2,7-diazaspiro[(3.5]nonan-7-yl)-N-(methyl-d3)pyridazine-3-formamide [Compound 91]	> 300 nM
N-((1r,4r)-4-(3-chloro-4-cyanophenoxy)cyclohexyl)-6-(4-((6-(2-(2,6-dioxopiperidin-3-yl)-6-fluoro-1,3-dioxoisoindolin-5-yl)-2,6-diazaspiro[3.3]heptan-2-yl)methyl)piperidin-1-yl)pyrazine-2-amide [Compound 123]	< 10 nM

These molecules were tested against T1, androgen receptor (AR) (assay: Degradation of androgen receptor (AR) protein in VCaP cells by Western blot). Conditions: FIG. 1.
Assay type: cell-based
Protocol: Determination of the Degradation Activity of the Compound on Androgen Receptor (AR) Protein by Western Blot
1) VCaP cells were subcultured in cell culture media, and then the cells in good growth condition were seeded in a 12-well plate at 1 ml/well (5×10^5 cells/well), and cultured overnight in a 37° C., 5% CO2 cell incubator. 2) The test compound was prepared into a 10 mM stock solution with dimethyl sulfoxide (DMSO). Prior to use, the solution was diluted 3 times with DMSO. […] of the diluted compound solution was added to the cell culture well (ensuring that the DMSO concentration in the culture system was 0.1%), and two wells were set for each concentration. The plate was gently shaken to mix. In addition, the experiment included negative control wells (containing equal amount of DMSO) and positive control wells. 3) After culturing 16 h. the cells were lysed with RIPA cell lysate, and the protein was extracted. The protein concentration was measured with BCA kit. 5-fold concentrated protein loading buffer was added, and after heated at 100° C. for 5 min. the sample was stored at −20° C. 4) for each well, 30 μg of protein was loaded on polyacrylamide gel for electrophoresis. 5) The protein was transferred from polyacrylamide gel to PVDF membrane, and then 5% skim milk was added to close for 1 h at room temperature. The first antibody (Androgen Receptor (D6F11) XP Rabbit mAb and Anti-β-Actin Rabbit mAb) was added and incubated overnight at 4° C. The membrane was washed with TBST solution three times. 10 min for each time. The secondary antibody (horseradish peroxidase labeled goat […]) was added and incubated at room temperature for 2 h, and then the membrane was washed with TBST solution three times. 10 min for each time.
Finally, ECL chemiluminescence solution was added, and then photos were taken with automatic chemiluminescence instrument to collect pictures for analysis.

Molecule	degradation activity on AR at different concentrations
N#Cc1ccc(O[C@H]2CC[C@H](NC(=O)c3cnc(N4CCN(C[C@@H]5[C@H]6CN(c7cc8c(cc7F)C(=O)N(C7CCC(=O)NC7=O)C8=O)C[C@@H]56)CC4)cn3)CC2)cc1Cl (some centres unmarked) [Compound 99]	concentration-dependent manner

Same assay, conditions: percentage of degraded AR at 100 nM, VCaP cells, 16 h

Molecule	inhibition at 0.1 µM	% degradation
N#Cc1ccc(O[C@H]2CC[C@H](NC(=O)c3ccc(N4CCC(CN5CCCN(c6ccc7c(c6)C(=O)N(C6CCC(=O)NC6=O)C7=O)CC5)CC4)cc3)CC2)cc1Cl (stereo partly drawn) [Compound 58, N-((1R,4R)-4-(3-chloro-4-cyanophenoxy)cyclohexyl)-4-(4-((4-(2-(2,6-dioxopiperidin-3-yl)-1,3-dioxoisoindolin-5-yl)-1,4-diazepan-1-yl)methyl)piperidin-1-yl)benzamide]	25 to 49%	–
N#Cc1ccc(O[C@H]2CC[C@H](NC(=O)c3ccc(N4CCC(N5CC6(CCN(c7cc8c(cc7F)C(=O)N(C7CCC(=O)NC7=O)C8=O)CC6)C5)CC4)nn3)CC2)cc1Cl (stereo partly drawn) [Compound 61, N-((1R,4R)-4-(3-chloro-4-cyanophenoxy)cyclohexyl)-6-(4-(7-(2-(2,6-dioxopiperidin-3-yl)-6-fluoro-1,3-dioxoisoindolin-5-yl)-2,7-diazaspiro[3.5]nonyl-2-yl)piperidin-1-yl)pyridazine-3-carboxamide]	> 80%	–
N#Cc1ccc(O[C@H]2CC[C@H](NC(=O)c3ccc(N4CCC(N5CC6CN(c7ccc8c(c7)C(=O)N(C7CCC(=O)NC7=O)C8=O)CC6C5)CC4)nn3)CC2)cc1Cl (some centres unmarked) [Compound 62, N-((1r,4r)-4-(3-chloro-4-cyanophenoxy)cyclohexyl)-6-(4-(5-(2-(2,6-dioxopiperidin-3-yl)-1,3-dioxoisoindolin-5-yl)hexahydropyrrolo[3,4-c]pyrrol-2(1H)-yl)piperidin-1-yl)pyridazine-3-carboxamide]	50 to 79%	–
N#Cc1ccc(O[C@H]2CC[C@H](NC(=O)c3cnc(N4CCC(N5CC6CN(c7ccc8c(c7)C(=O)N(C7CCC(=O)NC7=O)C8=O)CC6C5)CC4)cn3)CC2)cc1Cl (some centres unmarked) [Compound 63, N-((1r,4r)-4-(3-chloro-4-cyanophenoxy)cyclohexyl)-5-(4-(5-(2-(2,6-dioxopiperidin-3-yl)-1,3-dioxoisoindolin-5-yl)hexahydropyrrolo[3,4-c]pyrrol-2(1H)-yl)piperidin-1-yl)pyrazine-2-carboxamide]	50 to 79%	–
N#Cc1ccc(O[C@H]2CC[C@H](NC(=O)c3cnc(N4CCC(N5CC6CN(c7cc8c(cc7F)C(=O)N(C7CCC(=O)NC7=O)C8=O)CC6C5)CC4)cn3)CC2)cc1Cl (some centres unmarked) [Compound 64, N-((1r,4r)-4-(3-chloro-4-cyanophenoxy)cyclohexyl)-5-(4-(5-(2-(2,6-dioxopiperidin-3-yl)-6-fluoro-1,3-dioxoisoindolin-5-yl)hexahydropyrrolo[3,4-c]pyrrol-2(1H)-yl)piperidin-1-yl)pyrazine-2-carboxamide]	50 to 79%	–
N#Cc1ccc(O[C@H]2CC[C@H](NC(=O)c3ccc(N4CC5CN(C6CCN(c7cc8c(cc7F)C(=O)N(C7CCC(=O)NC7=O)C8=O)CC6)CC5C4)nn3)CC2)cc1Cl (some centres unmarked) [Compound 67]	< 25%	–
N#Cc1ccc(O[C@H]2CC[C@H](NC(=O)c3cnc(N4CC5CN(C6CCN(c7ccc8c(c7)C(=O)N(C7CCC(=O)NC7=O)C8=O)CC6)CC5C4)cn3)CC2)cc1Cl (some centres unmarked) [Compound 69, N-((1r,4r)-4-(3-chloro-4-cyanophenoxy)cyclohexyl)-5-(5-(1-(2-(2,6-dioxopiperidin-3-yl)-1,3-dioxoisoindolin-5-yl)piperidine-4-yl)hexahydropyrrolo[3,4-c]pyrrol-2(1H)-yl)pyrazine-2-carboxamide]	< 25%	–
N#Cc1ccc(O[C@H]2CC[C@H](NC(=O)c3ccc(N4CCC5(CC4)CN(C4CCN(c6cc7c(cc6F)C(=O)N(C6CCC(=O)NC6=O)C7=O)CC4)C5)nn3)CC2)cc1Cl (some centres unmarked) [Compound 71]	> 80%	–
CC1(C)[C@H](NC(=O)c2ccc(N3CC4CN(C5CCN(c6cc7c(cc6F)C(=O)N(C6CCC(=O)NC6=O)C7=O)CC5)CC4C3)nn2)C(C)(C)[C@H]1Oc1ccc(C#N)c(Cl)c1 (some centres unmarked) [Compound 72, N-((1r,3r)-3-(3-chloro-4-cyanophenoxy)-2,2,4,4-tetramethylcyclobutyl)-6-(5-(1-(2-(2,6-dioxopiperidin-3-yl)-6-fluoro-1,3-dioxoisoindolin-5-yl)piperidine-4-yl)hexahydropyrrolo[3,4-c]pyrrol-2(1H)-yl)pyridazine-3-formamide]	25 to 49%	–
N#Cc1ccc(OC2CCC(NC(=O)c3cnc(N4CCC(NC5CCN(c6cc7c(cc6F)C(=O)N(C6CCC(=O)NC6=O)C7=O)CC5)CC4)cn3)CC2)cc1Cl (centres unmarked) [Compound 73, N-((1r,4r)-4-(3-chloro-4-cyanophenoxy)cyclohexyl)-5-(4-((1-(2,6-dioxopiperidin-3-yl-6-fluoro-1,3-dioxoisoindolin-5-yl)piperidine-4-yl)amino)piperidin-1-yl)pyrazine-2-carboxamide]	–	A (>80%)
N#Cc1ccc(O[C@H]2CC[C@H](NC(=O)c3ccc(N4CCC5(CC4)CN(C4CCN(c6ccc7c(c6)C(=O)N(C6CCC(=O)NC6=O)C7=O)CC4)C5)nn3)CC2)cc1Cl (some centres unmarked) [Compound 74]	> 80%	–
N#Cc1ccc(O[C@H]2CC[C@H](NC(=O)c3ccc(N4CC5CN(C[C@@H]6[C@H]7CN(c8ccc9c(c8)C(=O)N(C8CCC(=O)NC8=O)C9=O)C[C@@H]67)CC5C4)nn3)CC2)cc1Cl (some centres unmarked) [Compound 100]	50 to 79%	–
CC1(C)[C@H](NC(=O)c2ccc(N3CCN(C[C@@H]4[C@H]5CN(c6cc7c(cc6F)C(=O)N(C6CCC(=O)NC6=O)C7=O)C[C@@H]45)CC3)nn2)C(C)(C)[C@H]1Oc1ccc(C#N)c(Cl)c1 (some centres unmarked) [Compound 101]	25 to 49%	–
N#Cc1ccc(O[C@H]2CC[C@H](NC(=O)c3ccc(N4CCN(C[C@@H]5[C@H]6CN(c7ccc8c(c7)C(=O)N(C7CCC(=O)NC7=O)C8=O)C[C@@H]56)CC4)nn3)CC2)cc1Cl (some centres unmarked) [Compound 102]	50 to 79%	–
N#Cc1ccc(O[C@H]2CC[C@H](NC(=O)c3ccc(N4CCC(N5CC6(CCN(c7cc8c(cc7F)C(=O)N(C7CCC(=O)NC7=O)C8=O)C6)C5)CC4)nn3)CC2)cc1Cl (some centres unmarked) [Compound 103, N-((1r,4r)-4-(3-chloro-4-cyanophenoxy)cyclohexyl)-6-(4-(6-(2-(2,6-dioxopiperidin-3-yl)-6-fluoro-1,3-dioxoisoindolin-5-yl)-2,6-diazaspiro[3.4]octane-2-yl)piperidin-1-yl)pyridazine-3-formamide]	> 80%	–
